The source made the active and inactive calls. The rule behind the calls is not given here.

Assay [1] concerns DLD-1. Description: Antitumor activity in human DLD1 cells xenografted CD1 immunodeficient nude mouse after 24 hrs assessed as decrease in functional vasculature. The arrangement: scale not given: the % may be the effect or the level left. For orientation: Xenograft models place foreign cells or tissue in a host animal.
Assay [2] deals with DLD-1. The assay is described as follows: Antitumor activity in human DLD1 cell xenografted CD1 immunodeficient nude mouse assessed as mean tumor doubling time. Type of assay: functional.
For assay [3], the system named is DLD-1. Description: Antitumor activity in human DLD1 cells xenografted CD1 immunodeficient nude mouse after 24 hrs assessed as increase in tumor necrosis. The format is functional.
Assay [4] has as its system HUVEC. Description: Disruption of normal microtubule structure in HUVEC cells at 440 nM. Type of assay: functional, cell-based. The note with it: Homo sapiens.
In assay [5] the test system is DLD-1. The assay is described as follows: Disruption of normal microtubule structure in human DLD1 cells at 440 nM. Type of assay: functional, cell-based.
Assay [6] concerns DLD-1. Description: Antitumor activity in human DLD1 cell xenografted CD1 immunodeficient nude mouse assessed as weight loss. The format is functional.
Assay [7] has as its system DLD-1. The assay is described as follows: Antitumor activity in human DLD1 cell xenografted CD1 immunodeficient nude mouse at 100 mg/kg, iv assessed as mean tumor doubling time. The format is functional.
The test system of assay [8] is DLD-1. The assay is described as follows: Cell cycle arrest in human DLD1 cells assessed as accumulation at G2/M phase at 25 uM. Type of assay: functional, cell-based.
Assay [9] has as its system DLD-1. Description: Reduction in mitochondrial membrane potential in human DLD1 cells at 250 uM after 24 hrs assessed as decrease in fluorescence of mitoTracker green FM. The format is functional, cell-based.
Assay [10] has as its system HUVEC. The assay is described as follows: (§1) Disruption of normal microtubule structure in HUVEC cells at 250 uM after 3 hrs. Type of assay: functional, cell-based. Particulars: Homo sapiens.
For assay [11], the system named is DLD-1. The assay is described as follows: Antitumor activity in human DLD1 cells xenografted CD1 immunodeficient nude mouse at 100 mg/kg after 24 hrs assessed as increase in tumor necrosis. The format is functional.
The test system of assay [12] is HUVEC. The description is as §1. Type of assay: functional, cell-based. Particulars: Homo sapiens. This is another data set of the same source.
The test system of assay [13] is DLD-1. The assay is described as follows: Antitumor activity against human DLD1 cells after 1 hr by MTT assay. The format is functional, cell-based. Particulars: DLD-1, 1 h. (In general: Tetrazolium assays rely on reduction of a dye to a coloured formazan, in cell work by metabolically active cells.)
The test system of assay [14] is DLD-1. The assay is described as follows: Antitumor activity against human DLD1 cells after 96 hrs. Type of assay: functional, cell-based. Particulars: DLD-1, 96 h.
For assay [15], the system named is DLD-1. Description: Reduction in mitochondrial membrane potential in human DLD1 cells at 250 uM after 7 hrs assessed as decrease in fluorescence of mitoTracker green FM. The format is functional, cell-based.
Assay [16] concerns HUVEC. Description: Disruption of normal microtubule structure in HUVEC cells at 250 uM after 1 hr. Particulars: Homo sapiens. The format is functional, cell-based.
Assay [17] has as its system DLD-1. The assay is described as follows: Antitumor activity in human DLD1 cells xenografted CD1 immunodeficient nude mouse at 100 mg/kg after 24 hrs assessed as decrease in functional vasculature. On the set-up: scale not given: the % may be the effect or the level left.
The subject of assay [18] is DLD-1. The assay is described as follows: Reduction in mitochondrial membrane potential in human DLD1 cells at 250 uM after 4 hrs assessed as decrease in fluorescence of mitoTracker green FM. The format is functional, cell-based.
The test system of assay [19] is DLD-1. The assay is described as follows: Antitumor activity in human DLD1 cell xenografted CD1 immunodeficient nude mouse at 100 mg/kg, iv assessed as weight loss. The format is functional.

Consider `CC(=O)O[C@H]1C(=O)[C@@]2(C)[C@H]([C@H](OC(=O)c3ccccc3)[C@]3(O)C[C@H](OC(=O)[C@H](O)[C@@H](NC(=O)c4ccccc4)c4ccccc4)C(C)=C1C3(C)C)[C@]1(OC(C)=O)CO[C@@H]1C[C@@H]2O` [PACLITAXEL], for which the Activity with DLD-1 [1] was determined as 6.5%; in the assay with DLD-1 [2] it was 6.2 days; in the assay with DLD-1 [3], 8.1%; with DLD-1 [6] it was 0.5%. Further, the result in the assay with HUVEC [4] and in the assay on DLD-1 [5] was Active.

In general, IC50 refers to the concentration that gives 50% inhibition. Take `O=C1N[C@H]2[C@@H]3OP(=O)([O-])O[C@@H]3[C@@H](O)[C@H](O)[C@@H]2c2cc3c(c(O)c21)OCO3.[Na+]`: the Activity worked out at 15.1 days in the assay with DLD-1 [7], 95.3% with DLD-1 [11], 0.6% in the assay on DLD-1 [17] and 8.8% with DLD-1 [19]. Also, the outcome in the assay with DLD-1 [8], with HUVEC [10], with HUVEC [12] and in the assay on HUVEC [16] was inactive. Moreover, the outcome in the assay with DLD-1 [9], in the assay with DLD-1 [15] and in the assay with DLD-1 [18] was Active. In addition, the IC50 in the assay on DLD-1 [13] was 253 µM; with DLD-1 [14], 19.7 µM.

These data come from ChEMBL document CHEMBL1143071, “Sodium pancratistatin 3,4-o-cyclic phosphate, a water-soluble synthetic derivative of pancratistatin, is highly effective in a human colon tumor model” (J Nat Prod, 2008).
